The values below come from patent US20200000766A1, “COMPOSITIONS AND METHODS FOR AGONIZING THE CB2 RECEPTOR” (priority 2018, published 2020).

Molecules are shown by their SMILES.

Assay [1] concerns the target T1, human CB2 (Homo sapiens, UniProt P34972). Put plainly: Cannabinoid Receptor 2 (CB2) activity, calcium FLIPR assay in CHO-K1 cells co-expressing human CB2 and G15. The settings on record: FIG. 1 and FIG. 2.
The subject of assay [2] is transient receptor potential (TRP) channels. The settings on record: cited from earlier work.
Assay [3] deals with T1, human CB2. More on the design: expressed in transfected cells. The settings on record: cited from earlier work.

T1 sequence (P34972 whole entry): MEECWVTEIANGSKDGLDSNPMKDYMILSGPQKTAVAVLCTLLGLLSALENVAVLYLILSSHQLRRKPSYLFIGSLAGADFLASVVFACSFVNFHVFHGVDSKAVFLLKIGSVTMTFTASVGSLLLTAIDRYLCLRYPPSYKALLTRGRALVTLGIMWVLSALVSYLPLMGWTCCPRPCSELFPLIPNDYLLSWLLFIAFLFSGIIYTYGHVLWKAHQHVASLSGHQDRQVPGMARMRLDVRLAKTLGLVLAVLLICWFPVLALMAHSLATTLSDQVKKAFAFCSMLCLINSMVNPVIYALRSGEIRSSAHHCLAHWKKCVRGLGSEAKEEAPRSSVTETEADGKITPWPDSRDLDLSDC

In the case of `CCCCCc1cc(O)c2c(c1)OC(C)(CCC=C(C)C)C=C2` (stereo not shown) [CBC, cannabichromene], the “agonist potency at the human CB2 receptor compared with other phytocannabinoid agonists (CBD, CBCV)” value in assay [1] is “more potent agonist”. The “potency at human CB2 receptor relative to CBD” value in assay [1] (two independent experiments) was “at least 4 fold”. In assay [2], the “agonism at several TRP channels” value is recorded as “known agonist at several transient receptor potential (TRP) channels, albeit somewhat weakly”.
For `C=C(C)[C@@H]1CCC(C)=C[C@H]1c1c(O)cc(CCCCC)cc1O` [CBD, cannabidiol], the “agonism at the CB2 receptor (known)” value in assay [3] was “known agonist”.
